One assay deals with BRM (Homo sapiens, UniProt P51531). The assay can be described thus: ATPase catalytic activity of BRM (ADP-Glo in vitro biochemical assay). The following applies: for BRM Max % Inhibition: Table 6.
The next assay concerns the target BRG-1 (Homo sapiens, UniProt P51532). The experiment in a line: ATPase catalytic activity of BRG-1 (ADP-Glo in vitro biochemical assay). To be noted: for BRG1 Max % Inhibition: Table 6.

Structures are written as SMILES.

BRG-1, sequence (P51532 whole entry): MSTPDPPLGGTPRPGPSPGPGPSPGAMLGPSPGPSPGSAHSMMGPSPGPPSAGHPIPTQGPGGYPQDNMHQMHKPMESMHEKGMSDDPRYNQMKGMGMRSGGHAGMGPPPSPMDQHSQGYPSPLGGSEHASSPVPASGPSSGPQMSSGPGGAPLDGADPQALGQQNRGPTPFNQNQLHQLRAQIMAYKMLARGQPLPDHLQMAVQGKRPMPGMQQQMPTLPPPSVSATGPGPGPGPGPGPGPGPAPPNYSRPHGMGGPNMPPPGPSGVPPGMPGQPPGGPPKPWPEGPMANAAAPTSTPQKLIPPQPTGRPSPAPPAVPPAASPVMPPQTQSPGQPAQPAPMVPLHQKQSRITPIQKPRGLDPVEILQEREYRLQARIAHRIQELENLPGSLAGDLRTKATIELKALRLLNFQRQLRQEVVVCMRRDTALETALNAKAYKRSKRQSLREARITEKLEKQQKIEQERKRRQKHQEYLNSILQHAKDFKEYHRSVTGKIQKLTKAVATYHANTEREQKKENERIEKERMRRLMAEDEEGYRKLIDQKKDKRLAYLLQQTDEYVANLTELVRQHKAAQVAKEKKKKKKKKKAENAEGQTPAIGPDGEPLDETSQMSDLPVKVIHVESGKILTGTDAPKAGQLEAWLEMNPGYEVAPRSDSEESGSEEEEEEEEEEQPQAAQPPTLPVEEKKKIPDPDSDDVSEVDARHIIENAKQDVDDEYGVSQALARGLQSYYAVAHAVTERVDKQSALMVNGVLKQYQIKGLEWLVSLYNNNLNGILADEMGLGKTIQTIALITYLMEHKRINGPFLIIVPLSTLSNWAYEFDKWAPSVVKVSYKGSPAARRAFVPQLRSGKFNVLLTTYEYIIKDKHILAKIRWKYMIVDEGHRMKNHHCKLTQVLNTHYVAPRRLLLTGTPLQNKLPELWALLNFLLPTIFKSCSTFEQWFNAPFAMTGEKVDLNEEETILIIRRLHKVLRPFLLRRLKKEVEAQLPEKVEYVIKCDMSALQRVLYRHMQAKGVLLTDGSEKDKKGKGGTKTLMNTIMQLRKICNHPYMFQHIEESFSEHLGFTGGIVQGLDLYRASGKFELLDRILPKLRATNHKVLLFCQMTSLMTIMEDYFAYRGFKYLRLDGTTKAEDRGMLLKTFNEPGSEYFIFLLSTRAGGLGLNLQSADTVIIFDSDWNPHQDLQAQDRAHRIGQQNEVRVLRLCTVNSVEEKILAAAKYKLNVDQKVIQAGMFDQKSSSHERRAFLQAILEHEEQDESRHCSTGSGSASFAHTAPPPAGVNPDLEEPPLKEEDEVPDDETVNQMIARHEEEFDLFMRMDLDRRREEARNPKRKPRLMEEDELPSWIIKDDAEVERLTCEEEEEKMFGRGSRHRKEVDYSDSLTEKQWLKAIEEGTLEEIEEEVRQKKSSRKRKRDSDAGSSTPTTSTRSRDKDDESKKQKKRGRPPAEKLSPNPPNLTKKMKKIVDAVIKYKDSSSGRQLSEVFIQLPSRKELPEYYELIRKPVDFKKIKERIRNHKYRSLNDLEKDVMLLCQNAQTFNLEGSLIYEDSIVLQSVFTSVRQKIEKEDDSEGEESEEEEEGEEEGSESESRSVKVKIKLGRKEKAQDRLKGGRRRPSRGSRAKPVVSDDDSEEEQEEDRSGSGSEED
BRM, sequence (P51531 whole entry): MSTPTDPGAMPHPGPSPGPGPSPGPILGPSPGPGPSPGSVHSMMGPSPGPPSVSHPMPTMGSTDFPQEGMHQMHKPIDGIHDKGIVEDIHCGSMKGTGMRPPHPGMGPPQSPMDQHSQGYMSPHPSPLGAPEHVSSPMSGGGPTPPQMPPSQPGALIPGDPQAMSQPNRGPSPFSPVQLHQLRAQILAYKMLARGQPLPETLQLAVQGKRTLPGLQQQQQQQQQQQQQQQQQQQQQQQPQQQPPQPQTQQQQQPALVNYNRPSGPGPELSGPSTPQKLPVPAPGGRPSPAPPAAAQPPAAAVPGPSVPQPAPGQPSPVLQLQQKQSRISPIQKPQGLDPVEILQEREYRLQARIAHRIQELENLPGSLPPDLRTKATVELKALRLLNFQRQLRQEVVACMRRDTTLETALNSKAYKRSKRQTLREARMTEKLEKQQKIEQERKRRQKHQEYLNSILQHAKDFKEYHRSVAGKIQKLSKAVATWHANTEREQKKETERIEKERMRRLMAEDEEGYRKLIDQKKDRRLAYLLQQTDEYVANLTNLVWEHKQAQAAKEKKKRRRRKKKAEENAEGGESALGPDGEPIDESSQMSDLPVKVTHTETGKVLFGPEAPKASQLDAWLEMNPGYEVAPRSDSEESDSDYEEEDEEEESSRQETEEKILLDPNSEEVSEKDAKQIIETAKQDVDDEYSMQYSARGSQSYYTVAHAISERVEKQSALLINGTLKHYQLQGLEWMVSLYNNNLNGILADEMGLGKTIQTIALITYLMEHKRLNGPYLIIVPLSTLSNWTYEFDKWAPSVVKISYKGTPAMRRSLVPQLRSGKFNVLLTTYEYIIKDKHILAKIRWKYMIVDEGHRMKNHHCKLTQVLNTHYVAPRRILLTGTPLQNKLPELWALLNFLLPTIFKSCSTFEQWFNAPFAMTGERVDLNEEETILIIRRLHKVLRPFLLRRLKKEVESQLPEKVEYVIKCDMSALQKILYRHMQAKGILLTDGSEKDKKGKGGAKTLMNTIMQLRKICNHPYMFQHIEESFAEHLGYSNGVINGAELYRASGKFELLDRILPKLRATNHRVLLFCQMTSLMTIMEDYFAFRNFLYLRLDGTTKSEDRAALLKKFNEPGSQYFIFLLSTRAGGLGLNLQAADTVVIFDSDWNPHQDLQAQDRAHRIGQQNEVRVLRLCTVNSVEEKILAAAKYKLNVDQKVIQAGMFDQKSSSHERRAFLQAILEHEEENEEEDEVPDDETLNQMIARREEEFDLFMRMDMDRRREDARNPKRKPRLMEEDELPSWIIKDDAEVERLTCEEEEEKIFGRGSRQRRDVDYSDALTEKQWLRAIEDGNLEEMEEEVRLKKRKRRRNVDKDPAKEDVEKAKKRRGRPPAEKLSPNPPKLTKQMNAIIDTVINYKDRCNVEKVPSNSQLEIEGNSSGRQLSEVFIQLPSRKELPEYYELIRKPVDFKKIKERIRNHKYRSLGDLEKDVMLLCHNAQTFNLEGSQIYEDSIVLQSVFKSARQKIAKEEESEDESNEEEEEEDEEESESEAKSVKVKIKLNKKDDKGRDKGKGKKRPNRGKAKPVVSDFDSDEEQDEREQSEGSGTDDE

Turning to `NCCn1ccc(-c2cccc(-c3csc(NC(=O)CNC(=O)c4ccc(N)cc4)n3)c2)cc1=O` [Compound 166, 4-amino-N-(2-((4-(3-(1-(2-aminoethyl)-2-oxo-1,2-dihydropyridin-4-yl)phenyl)thiazol-2-yl)amino)-2-oxoethyl)benzamide], on BRM, the IC50 is 100 to 1000 nM and the “BRM Max % Inhibition” value is recorded as more than 95%. At BRG-1, the IC50 is 100 to 1000 nM and the “BRG1 Max % Inhibition” value was more than 95%.
Consider `CN(C)CCn1ccc2ccc(-c3csc(NC(=O)CNC(=O)c4ccc(N)cc4)n3)cc2c1=O` [Compound 167, 4-amino-N-(2-((4-(2-(2-(dimethylamino)ethyl)-1-oxo-1,2-dihydroisoquinolin-7-yl)thiazol-2-yl)amino)-2-oxoethyl)benzamide], for which, on BRM, the IC50 lay in the range of 100 to 1000 nM and the “BRM Max % Inhibition” value is more than 95%. Moreover, on BRG-1, the IC50 lay within 100 to 1000 nM and the “BRG1 Max % Inhibition” value is more than 95%.
Regarding `CN(C)Cc1cc(-c2cccc(-c3csc(NC(=O)CNC(=O)c4ccc(N)cc4)n3)c2)ccn1` [Compound 168, 4-amino-N-(2-((4-(3-(2-((dimethylamino)methyl)pyridin-4-yl)phenyl)thiazol-2-yl)amino)-2-oxoethyl)benzamide], at BRM, the IC50 is less than 100 nM and the “BRM Max % Inhibition” value is more than 95%. For the same compound, on BRG-1, the concentration for half-maximal inhibition (IC50) was less than 100 nM and the “BRG1 Max % Inhibition” value is more than 95%.
`NCC1CCC(c2cccc(-c3csc(NC(=O)CNC(=O)c4ccc(N)cc4)n3)c2)CC1` (stereo not shown) [Compound 169, 4-amino-N-(2-((4-(3-(4-(aminomethyl)cyclohexyl)phenyl)thiazol-2-yl)amino)-2-oxoethyl)benzamide]: on BRM, the IC50 is 100 to 1000 nM and the “BRM Max % Inhibition” value is given as more than 95%. On BRG-1, the half-maximal inhibitory concentration (IC50) was in the range of 100 to 1000 nM and the “BRG1 Max % Inhibition” value was more than 95%.
Consider `CN(C)CCn1cc(-c2cccc(-c3csc(NC(=O)CNC(=O)c4ccc(N)cc4)n3)c2)ccc1=O` [Compound 170, 4-amino-N-(2-((4-(3-(1-(2-(dimethylamino)ethyl)-6-oxo-1,6-dihydropyridin-3-yl)phenyl)thiazol-2-yl)amino)-2-oxoethyl)benzamide], for which, on BRM, the IC50 lay in the range of 100 to 1000 nM and the “BRM Max % Inhibition” value is more than 95%. In addition, on BRG-1, the IC50 lay in the range of 100 to 1000 nM and the “BRG1 Max % Inhibition” value is more than 95%.
Turning to `NCCn1ccc2ccc(-c3csc(NC(=O)CNC(=O)c4ccc(N)cc4)n3)cc2c1=O` [Compound 171, 4-amino-N-(2-((4-(2-(2-aminoethyl)-1-oxo-1,2-dihydroisoquinolin-7-yl)thiazol-2-yl)amino)-2-oxoethyl)benzamide], on BRM, the IC50 fell in the range of 100 to 1000 nM and the “BRM Max % Inhibition” value is more than 95%. In addition, at BRG-1, the IC50 lay in the range of 100 to 1000 nM and the “BRG1 Max % Inhibition” value is more than 95%.
With `Nc1ccc(C(=O)N[C@@H](CO)C(=O)Nc2nc(-c3cccc(-c4ccncc4)c3)cs2)cc1` [Compound 172, (S)-4-amino-N-(3-hydroxy-1-oxo-1-((4-(3-(pyridin-4-yl)phenyl)thiazol-2-yl)amino)propan-2-yl)benzamide], on BRM, the IC50 lay in the range of 100 to 1000 nM and the “BRM Max % Inhibition” value is more than 95%. Besides, at BRG-1, the concentration for half-maximal inhibition (IC50) fell in the range of 100 to 1000 nM and the “BRG1 Max % Inhibition” value is reported as more than 90%.
As for `Nc1ccc(C(=O)NCC(=O)Nc2nc(C3CCCN(c4cccnc4)C3)cs2)cc1` (stereo not shown) [Compound 173, 4-amino-N-(2-oxo-2-((4-(1-(pyridin-3-yl)piperidin-3-yl)thiazol-2-yl)amino)ethyl)benzamide], on BRM, the IC50 fell in the range of 100 to 1000 nM and the “BRM Max % Inhibition” value is reported as more than 90%. Also, at BRG-1, the IC50 fell in the range of 100 to 1000 nM and the “BRG1 Max % Inhibition” value is on record as more than 90%.
For `NC[C@H]1CC[C@H](c2cccc(-c3csc(NC(=O)CNC(=O)c4ccc(N)cc4)n3)c2)CC1` [Compound 174, 4-amino-N-(2-((4-(3-((1r,4r)-4-(aminomethyl)cyclohexyl)phenyl)thiazol-2-yl)amino)-2-oxoethyl)benzamide], at BRM, the IC50 is 100 to 1000 nM and the “BRM Max % Inhibition” value is reported as more than 80%. Moreover, at BRG-1, the IC50 fell in the range of 100 to 1000 nM and the “BRG1 Max % Inhibition” value is recorded as more than 80%.
Consider `NC[C@H]1CC[C@@H](c2cccc(-c3csc(NC(=O)CNC(=O)c4ccc(N)cc4)n3)c2)CC1` [Compound 175, 4-amino-N-(2-((4-(3-((1s,4s)-4-(aminomethyl)cyclohexyl)phenyl)thiazol-2-yl)amino)-2-oxoethyl)benzamide], for which, at BRM, the IC50 lay in the range of 100 to 1000 nM and the “BRM Max % Inhibition” value is given as more than 90%. Besides, at BRG-1, the concentration for half-maximal inhibition (IC50) lay within 100 to 1000 nM and the “BRG1 Max % Inhibition” value is on record as more than 80%.
On to `Nc1ccc(C(=O)NCC(=O)Nc2nc(-c3cccc(-c4cnn(CC(=O)O)c4)c3)cs2)cc1` [Compound 176, 2-(4-(3-(2-(2-(4-aminobenzamido)acetamido)thiazol-4-yl)phenyl)-1H-pyrazol-1-yl)acetic acid], for which, on BRM, the IC50 was 100 to 1000 nM and the “BRM Max % Inhibition” value is reported as more than 90%. On BRG-1, the 50% inhibitory concentration (IC50) was 100 to 1000 nM and the “BRG1 Max % Inhibition” value is listed as more than 80%.
With `COC(=O)Cc1cc(-c2cccc(-c3csc(NC(=O)CNC(=O)c4ccc(N)cc4)n3)c2)ccn1` [Compound 177, methyl 2-(4-(3-(2-(2-(4-aminobenzamido)acetamido)thiazol-4-yl)phenyl)pyridin-2-yl)acetate], at BRM, the IC50 is less than 100 nM and the “BRM Max % Inhibition” value was more than 95%. For the same compound, on BRG-1, the IC50 is less than 100 nM and the “BRG1 Max % Inhibition” value is listed as more than 95%.
Take `COCC[C@H](NC(=O)c1ccc(N)cc1)C(=O)Nc1nc(-c2cccc(-c3ccncc3)c2)cs1` [Compound 178, (S)-4-amino-N-(4-methoxy-1-oxo-1-((4-(3-(pyridin-4-yl)phenyl)thiazol-2-yl)amino)butan-2-yl)benzamide]: at BRM, the IC50 was less than 100 nM and the “BRM Max % Inhibition” value is more than 95%. Further, at BRG-1, the IC50 was less than 100 nM and the “BRG1 Max % Inhibition” value was more than 95%.
`Nc1ccc(C(=O)NCC(=O)Nc2nc(-c3cccc(N4CCOCC4)c3)cs2)cc1` [Compound 179, 4-amino-N-(2-((4-(3-morpholinophenyl)thiazol-2-yl)amino)-2-oxoethyl)benzamide]: on BRM, the concentration for half-maximal inhibition (IC50) was 100 to 1000 nM and the “BRM Max % Inhibition” value is more than 90%. Also, at BRG-1, the IC50 was 100 to 1000 nM and the “BRG1 Max % Inhibition” value is listed as more than 95%.
As for `COC(=O)Cn1cc(-c2cccc(-c3csc(NC(=O)CNC(=O)c4ccc(N)cc4)n3)c2)cn1` [Compound 180, methyl 2-(4-(3-(2-(2-(4-aminobenzamido)acetamido)thiazol-4-yl)phenyl)-1H-pyrazol-1-yl)acetate], at BRM, the concentration for half-maximal inhibition (IC50) lay in the range of 100 to 1000 nM and the “BRM Max % Inhibition” value was more than 90%. In addition, on BRG-1, the IC50 was 100 to 1000 nM and the “BRG1 Max % Inhibition” value is listed as more than 95%.
Turning to `COC(=O)c1cc(-c2cccc(-c3csc(NC(=O)CNC(=O)c4ccc(N)cc4)n3)c2)ccn1` [Compound 181, methyl 4-(3-(2-(2-(4-aminobenzamido)acetamido)thiazol-4-yl)phenyl)picolinate], on BRM, the IC50 is less than 100 nM and the “BRM Max % Inhibition” value is reported as more than 95%. Also, on BRG-1, the IC50 is less than 100 nM and the “BRG1 Max % Inhibition” value is on record as more than 95%.

The values are drawn from US11497752B2, “Compounds and uses thereof” (Foghorn Therapeutics Inc., priority 2018, dated 2022).
